Patent publication US20230339886A1 (University of Florida Research Foundation, Incorporated, priority 2020, published 2023)

Biological target: T1, REV-ERBα LBD (human; residues 281-614 Δ324-422) (Homo sapiens, UniProt P20393, DEL324-422)
T1 construct: 6×Histag-REV-ERBα LBD (human; residues 281-614 Δ324-422); made in house; host or cells: Escherichia coli
Test: TR-FRET corepressor interaction assay (REV-ERBα LBD, FITC-SMRT peptide)
Type: biochemical
Conditions: FITC-SMRT peptide, read-out: REVERBα agonism (EC50 class, FRET assay)
Outline: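 Compound serial dilutions (in DMSO, triplicate) incubated 2 h at 4 °C; Tb donor excited at 340 nm, emission read at 495 nm and FITC acceptor at 520 nm. TR-FRET ratio (520/495 nm) plotted against ligand concentration and fitted to a sigmoidal dose-response curve.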

T1 sequence (P20393 with tags, fused parts or gaps DEL324-422): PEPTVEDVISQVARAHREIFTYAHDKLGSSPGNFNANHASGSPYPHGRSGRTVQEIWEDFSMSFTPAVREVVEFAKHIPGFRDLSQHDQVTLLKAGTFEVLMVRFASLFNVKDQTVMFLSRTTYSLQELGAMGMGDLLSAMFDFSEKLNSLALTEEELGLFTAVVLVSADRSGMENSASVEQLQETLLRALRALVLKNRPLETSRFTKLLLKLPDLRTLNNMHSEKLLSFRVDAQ
T1 sequence (Q9Y618 2335-2356 partner limits assumed): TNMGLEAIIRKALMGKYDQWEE

EC50	Compound
< 500 nM	CCCn1cc([C@H](NS(=O)(=O)C2CCC2)C(F)(F)F)c2ccc(-c3ccccc3C(F)(F)F)cc21 [Example 438, (S)—N-(2,2,2-trifluoro-1-(1-propyl-6-(2-(trifluoromethyl)phenyl)-1H-indol-3-yl)ethyl)cyclobutanesulfonamide]
500 to 3000 nM	NC(=O)c1cccc(F)c1-c1ccc2c([C@H](NS(=O)(=O)C3CCC3)C(F)(F)F)cn(C3CCC3)c2c1 [Example 439, (S)-2-(3-(1-(cyclobutanesulfonamido)-2,2,2-trifluoroethyl)-1-cyclobutyl-1H-indol-6-yl)-3-fluorobenzamide]
< 500 nM	CC(C)(C)Cn1cc([C@H](NS(=O)(=O)C2CCC2)C(F)(F)F)c2cc(F)c(-c3ccccc3C#N)cc21 [Example 440, (S)—N-(1-(6-(2-cyanophenyl)-5-fluoro-1-neopentyl-1H-indol-3-yl)-2,2,2-trifluoroethyl)cyclobutanesulfonamide]
< 500 nM	CC(C)(C)Cn1cc([C@H](NS(=O)(=O)C2CCC2)C(F)(F)F)c2cc(F)c(-c3cnccc3C#N)cc21 [Example 441, (S)—N-(1-(6-(4-cyanopyridin-3-yl)-5-fluoro-1-neopentyl-1H-indol-3-yl)-2,2,2-trifluoroethyl)cyclobutanesulfonamide]
500 to 3000 nM	CC(F)(F)Cn1cc([C@H](NS(=O)(=O)C2CCC2)C(F)(F)F)c2ccc(-c3ccccc3C(F)(F)F)cc21 [Example 442, (S)—N-(1-(1-(2,2-difluoropropyl)-6-(2-(trifluoromethyl)phenyl)-1H-indol-3-yl)-2,2,2-trifluoroethyl)cyclobutanesulfonamide]
< 500 nM	CC(C)(C)Cn1cc([C@H](NS(=O)(=O)C2CCC2)C(F)(F)F)c2cc(F)c(-c3ncccc3C(F)(F)F)cc21 [Example 444, (S)—N-(2,2,2-trifluoro-1-(5-fluoro-1-neopentyl-6-(3-(trifluoromethyl)pyridin-2-yl)-1H-indol-3-yl)ethyl)cyclobutanesulfonamide]
< 500 nM	[2H]C(C)(NS(=O)(=O)C1CCC1)c1cn(CC(C)(C)C)c2cc(-c3ccccc3C(F)(F)F)ccc12 (stereo not drawn) [Example 445, N-(1-(1-neopentyl-6-(2-(trifluoromethyl)phenyl)-1H-indol-3-yl)ethyl-1-d)cyclobutanesulfonamide]
< 500 nM	CCC(C)n1cc([C@H](NS(=O)(=O)C2CCC2)C(F)(F)F)c2ccc(-c3ccccc3C(F)(F)F)cc21 (stereo partly drawn) [Example 446, N-((1S)-1-(1-(sec-butyl)-6-(2-(trifluoromethyl)phenyl)-1H-indol-3-yl)-2,2,2-trifluoroethyl)cyclobutanesulfonamide]
< 500 nM	CC(C)Cn1cc([C@H](NS(=O)(=O)C2CC2)C(F)(F)F)c2cc(F)c(-c3ccnc4c3CCCC4)cc21 [Example 454, N-[(1S)-2,2,2-trifluoro-1-[5-fluoro-1-isobutyl-6-(5,6,7,8-tetrahydroquinolin-4-yl)indol-3-yl]ethyl]cyclopropanesulfonamide]
< 500 nM	CC(C)Cn1cc([C@H](NS(=O)(=O)C2CC2)C(F)(F)F)c2cc(F)c(-c3ccncn3)cc21 [Example 455, (S)—N-(2,2,2-trifluoro-1-(5-fluoro-1-isobutyl-6-(pyrimidin-4-yl)-1H-indol-3-yl)ethyl)cyclopropanesulfonamide]
500 to 3000 nM	Cc1cn[nH]c1-c1cc2c(cc1F)c([C@H](NS(=O)(=O)C1CC1)C(F)(F)F)cn2CC(C)C [Example 456, (S)—N-(2,2,2-trifluoro-1-(5-fluoro-1-isobutyl-6-(4-methyl-1H-pyrazol-5-yl)-1H-indol-3-yl)ethyl)cyclopropanesulfonamide]
500 to 3000 nM	CC(C)Cn1cc([C@H](NS(=O)(=O)C2CC2)C(F)(F)F)c2cc(F)c(-c3cscn3)cc21 [Example 457, N-[(1S)-2,2,2-trifluoro-1-(5-fluoro-1-isobutyl-6-thiazol-4-yl-indol-3-yl)ethyl]cyclopropanesulfonamide]
500 to 3000 nM	CC(C)(C)Cn1cc([C@H](NS(=O)(=O)C2CC2)C(F)(F)F)c2cc(C(F)(F)F)c(-c3ccncc3)cc21 [Example 458, (S)—N-(2,2,2-trifluoro-1-(1-neopentyl-6-(pyridin-4-yl)-5-(trifluoromethyl)-1H-indol-3-yl)ethyl)cyclopropanesulfonamide]
< 500 nM	CC(C)(C)Cn1cc([C@H](NS(=O)(=O)C2COC2)C(F)(F)F)c2cc(F)c(-c3ccccc3C(F)(F)F)cc21 [Example 459, (S)—N-(2,2,2-trifluoro-1-(5-fluoro-1-neopentyl-6-(2-(trifluoromethyl)phenyl)-1H-indol-3-yl)ethyl)oxetane-3-sulfonamide]
< 500 nM	CC(C)(C)Cn1cc([C@H](NS(=O)(=O)C2CC2)C(F)(F)F)c2ccc(-c3c(F)cccc3C#N)cc21 [Example 460, (S)—N-(1-(6-(2-cyano-6-fluorophenyl)-1-neopentyl-1H-indol-3-yl)-2,2,2-trifluoroethyl)cyclopropanesulfonamide]
> 3000 nM	CC(C)(C)Cn1cc([C@H](NS(=O)(=O)C2CCOC2)C(F)(F)F)c2cc(F)c(-c3ccccc3C(F)(F)F)cc21 (stereo partly drawn) [Example 461, N—((S)-2,2,2-trifluoro-1-(5-fluoro-1-neopentyl-6-(2-(trifluoromethyl)phenyl)-1H-indol-3-yl)ethyl)tetrahydrofuran-3-sulfonamide]
< 500 nM	CC(C)(C)Cn1cc([C@H](NS(=O)(=O)C2CC2)C(F)(F)F)c2ccc(-c3ccccc3C#N)cc21 [Example 462, (S)—N-(1-(6-(2-cyanophenyl)-1-neopentyl-1H-indol-3-yl)-2,2,2-trifluoroethyl)cyclopropanesulfonamide]
< 500 nM	Cc1cccc(C(F)(F)F)c1-c1ccc2c([C@H](NS(=O)(=O)C3CC3)C(F)(F)F)cn(CC(C)(C)C)c2c1 [Example 463, (S)—N-(2,2,2-trifluoro-1-(6-(2-methyl-6-(trifluoromethyl)phenyl)-1-neopentyl-1H-indol-3-yl)ethyl)cyclopropanesulfonamide]
< 500 nM	CC(C)(C)Cn1cc([C@H](NS(=O)(=O)C2CC2)C(F)(F)F)c2ccc(-c3c(F)cccc3Cl)cc21 [Example 464, (S)—N-(1-(6-(2-chloro-6-fluorophenyl)-1-neopentyl-1H-indol-3-yl)-2,2,2-trifluoroethyl)cyclopropanesulfonamide]
500 to 3000 nM	CC(C)(C)Cn1cc([C@H](NS(=O)(=O)C2CC2)C(F)(F)F)c2cc(F)c(-c3cscn3)cc21 [Example 465, N-[(1S)-1-[1-(2,2-dimethylpropyl)-5-fluoro-6-thiazol-4-yl-indol-3-yl]-2,2,2-trifluoro-ethyl]cyclopropanesulfonamide]
< 500 nM	CC(C)(C)Cn1cc([C@H](NS(=O)(=O)C2CC2)C(F)(F)F)c2ccc(-c3cccnc3C#N)cc21 [Example 466, (S)—N-(1-(6-(2-cyanopyridin-3-yl)-1-neopentyl-1H-indol-3-yl)-2,2,2-trifluoroethyl)cyclopropanesulfonamide]
500 to 3000 nM	CC(C)(C)Cn1cc([C@H](NS(=O)(=O)C2CC2)C(F)(F)F)c2ccc(-c3ncccc3Cl)cc21 [Example 467, (S)—N-(1-(6-(3-chloropyridin-2-yl)-1-neopentyl-1H-indol-3-yl)-2,2,2-trifluoroethyl)cyclopropanesulfonamide]
< 500 nM	CC(C)(C)Cn1cc([C@H](NS(=O)(=O)C2CC2)C(F)(F)F)c2ccc(-c3ncccc3C#N)cc21 [Example 468, (S)—N-(1-(6-(3-cyanopyridin-2-yl)-1-neopentyl-1H-indol-3-yl)-2,2,2-trifluoroethyl)cyclopropanesulfonamide]
500 to 3000 nM	CC(C)(C)Cn1cc([C@H](NS(=O)(=O)C2CC2)C(F)(F)F)c2ccc(-c3ccccn3)cc21 [Example 469, (S)—N-(2,2,2-trifluoro-1-(1-neopentyl-6-(pyridin-2-yl)-1H-indol-3-yl)ethyl)cyclopropanesulfonamide]
< 500 nM	CC(C)(C)Cn1cc([C@H](NS(=O)(=O)C2CC2)C(F)(F)F)c2ccc(-c3c(Cl)cncc3Cl)cc21 [Example 470, (S)—N-(1-(6-(3,5-dichloropyridin-4-yl)-1-neopentyl-1H-indol-3-yl)-2,2,2-trifluoroethyl)cyclopropanesulfonamide]
500 to 3000 nM	CN(C)C(=O)c1ccccc1-c1ccc2c([C@H](NS(=O)(=O)C3CC3)C(F)(F)F)cn(CC(C)(C)C)c2c1 [Example 471, (S)-2-(3-(1-(cyclopropanesulfonamido)-2,2,2-trifluoroethyl)-1-neopentyl-1H-indol-6-yl)-N,N-dimethylbenzamide]
< 500 nM	CC(C)(C)Cn1cc([C@H](NS(=O)(=O)C2CC2)C(F)(F)F)c2ccc(-c3ccc(F)cc3C#N)cc21 [Example 472, (S)—N-(1-(6-(2-cyano-4-fluorophenyl)-1-neopentyl-1H-indol-3-yl)-2,2,2-trifluoroethyl)cyclopropanesulfonamide]
500 to 3000 nM	CC(C)(C)Cn1cc([C@H](NS(=O)(=O)C2CC2)C(F)(F)F)c2ccc(-c3cccc(C#N)c3F)cc21 [Example 473, (S)—N-(1-(6-(3-cyano-2-fluorophenyl)-1-neopentyl-1H-indol-3-yl)-2,2,2-trifluoroethyl)cyclopropanesulfonamide]
500 to 3000 nM	CC(C)(O)Cn1cc([C@H](NS(=O)(=O)C2CC2)C(F)(F)F)c2cc(F)c(-c3ccccc3C(F)(F)F)cc21 [Example 474, N-[(1S)-2,2,2-trifluoro-1-[5-fluoro-1-(2-hydroxy-2-methyl-propyl)-6-[2-(trifluoromethyl)phenyl]indol-3-yl]ethyl]cyclopropanesulfonamide]
< 500 nM	COC(C)(C)Cn1cc([C@H](NS(=O)(=O)C2CC2)C(F)(F)F)c2cc(F)c(-c3ccccc3C(F)(F)F)cc21 [Example 475, N-[(1S)-2,2,2-trifluoro-1-[5-fluoro-1-(2-methoxy-2-methyl-propyl)-6-[2-(trifluoromethyl)phenyl]indol-3-yl]ethyl]cyclopropanesulfonamide]
